Experimental data from patent US12049450B2, “Pyridyloxy-carboxylate derivative and preparation method therefor, herbicidal composition, and use” (Qingdao Kingagroot Chemical Compound Co., Ltd., priority 2018, dated 2024).

Columns and labels:
Format in all cases: in vivo
Monochoria vaginalis = test: Post-emergence test experiment (greenhouse pot, spray at 2-3 leaf stage); settings: 1000 g/ha; post-emergence spray at 2-3 leaf stage; assessed after 3 weeks; fresh weight inhibition rate
In short: (§1)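 Weed seeds sown in soil-filled pots in greenhouse, sprayed at 2-3 leaf stage (2 weeks after sowing) with compound in acetone/tween-80 plus methyl oleate emulsible concentrate (1.5 L/ha) diluted in water. Fresh-weight growth inhibition scored after 3 weeks on 0-5 scale (5: >85%, 0: <5%).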

Echinochloa crusgalli = test: as above; settings: 1000 g/ha; post-emergence spray at 2-3 leaf stage; assessed after 3 weeks; fresh weight inhibition rate
In short: as §1

Abutilon theophrasti = test: as above; settings: 1000 g/ha; post-emergence spray at 2-3 leaf stage; assessed after 3 weeks; fresh weight inhibition rate
In short: as §1

Galium spurium = test: as above; settings: 1000 g/ha; post-emergence spray at 2-3 leaf stage; assessed after 3 weeks; fresh weight inhibition rate
In short: as §1

Digitaria sanguinalis = test: as above; settings: 1000 g/ha; post-emergence spray at 2-3 leaf stage; assessed after 3 weeks; fresh weight inhibition rate
In short: as §1

Soybean = test: Spray drift test, application by unmanned gyroplane, soybean field at 10 meters; settings: 600 g/ha, gyroplane at 1 m, gentle breeze
Description: Broadleaf crops are very sensitive to hormonal herbicides, therefore crop injuries are more likely to occur in case of spray drifting. Tests were conducted in gentle breeze for the compounds of the present invention. The formulation of the compounds of the present invention was applied by DJI unmanned gyroplane with application height of 1 m and water volume of 20 kg/ha. The use rate was 600 g/ha. The active ingredient was dissolved by acetone and diluted to aqueous solution of Tween 80. There's a soybean field at 10 meters from the application area and the height of soybean plants were about 15 cm at the application time.

Row | SMILES | Activity level (growth inhibition rate) Monochoria Vaginalis (Monochoria vaginalis) | Activity level (growth inhibition rate) Echinochloa crusgalli (Echinochloa crusgalli) | Activity level (growth inhibition rate) Abutilon theophrasti (Abutilon theophrasti) | Activity level (growth inhibition rate) Galium spurium (Galium spurium) | Activity level (growth inhibition rate) Digitaria sanguinalis (Digitaria sanguinalis) | Soybean, injury level by spray drift (Soybean)
1 | CC(Oc1nc(F)c(Cl)c(N)c1Cl)C(=O)SCc1ccc(-c2ccccc2)cc1 (racemic) [Compound 113] | 5 (Level 5: the growth inhibition rate is greater than 85%) | 5 (Level 5: the growth inhibition rate is greater than 85%) | 5 (Level 5: the growth inhibition rate is greater than 85%) | 5 (Level 5: the growth inhibition rate is greater than 85%) | 5 (Level 5: the growth inhibition rate is greater than 85%) | 0 (Level 0: the growth inhibition rate is less than 5%)
2 | CC(Oc1nc(F)c(F)c(N)c1F)C(=O)OCc1ccccc1 (stereo not drawn) [Compound 1] | 5 (Level 5: the growth inhibition rate is greater than 85%) | 5 (Level 5: the growth inhibition rate is greater than 85%) | 5 (Level 5: the growth inhibition rate is greater than 85%) | 5 (Level 5: the growth inhibition rate is greater than 85%) | 5 (Level 5: the growth inhibition rate is greater than 85%) | 0 (Level 0: the growth inhibition rate is less than 5%)
3 | CC(Oc1nc(Cl)c(Cl)c(N)c1Cl)C(=O)OCc1ccccc1 (stereo not drawn) [Compound 2] | 5 (Level 5: the growth inhibition rate is greater than 85%) | 5 (Level 5: the growth inhibition rate is greater than 85%) | 5 (Level 5: the growth inhibition rate is greater than 85%) | 5 (Level 5: the growth inhibition rate is greater than 85%) | 5 (Level 5: the growth inhibition rate is greater than 85%) | 0 (Level 0: the growth inhibition rate is less than 5%)
4 | CC(Oc1ncc(Cl)c(N)c1Cl)C(=O)OCc1ccccc1 (stereo not drawn) [Compound 3] | 5 (Level 5: the growth inhibition rate is greater than 85%) | 5 (Level 5: the growth inhibition rate is greater than 85%) | 5 (Level 5: the growth inhibition rate is greater than 85%) | 5 (Level 5: the growth inhibition rate is greater than 85%) | 5 (Level 5: the growth inhibition rate is greater than 85%) | 0 (Level 0: the growth inhibition rate is less than 5%)
5 | CC(C)C(Oc1nc(F)c(Cl)c(N)c1Cl)C(=O)OCc1ccccc1 (stereo not drawn) [Compound 27] | 5 (Level 5: the growth inhibition rate is greater than 85%) | – | 5 (Level 5: the growth inhibition rate is greater than 85%) | 5 (Level 5: the growth inhibition rate is greater than 85%) | – | 0 (Level 0: the growth inhibition rate is less than 5%)
6 | Nc1c(Cl)c(F)nc(OC(C(=O)OCc2ccccc2)C(F)(F)F)c1Cl (stereo not drawn) [Compound 41] | 5 (Level 5: the growth inhibition rate is greater than 85%) | – | 5 (Level 5: the growth inhibition rate is greater than 85%) | 5 (Level 5: the growth inhibition rate is greater than 85%) | – | 0 (Level 0: the growth inhibition rate is less than 5%)
7 | N#CC(Oc1nc(F)c(Cl)c(N)c1Cl)C(=O)OCc1ccccc1 (stereo not drawn) [Compound 43] | 5 (Level 5: the growth inhibition rate is greater than 85%) | – | 5 (Level 5: the growth inhibition rate is greater than 85%) | 5 (Level 5: the growth inhibition rate is greater than 85%) | – | 0 (Level 0: the growth inhibition rate is less than 5%)
8 | CN(C)CC(Oc1nc(F)c(Cl)c(N)c1Cl)C(=O)SCc1ccccc1 (stereo not drawn) [Compound 46] | 5 (Level 5: the growth inhibition rate is greater than 85%) | – | 5 (Level 5: the growth inhibition rate is greater than 85%) | 5 (Level 5: the growth inhibition rate is greater than 85%) | – | 0 (Level 0: the growth inhibition rate is less than 5%)
9 | COC(Oc1nc(F)c(Cl)c(N)c1Cl)C(=O)SCc1ccccc1 (stereo not drawn) [Compound 50] | 5 (Level 5: the growth inhibition rate is greater than 85%) | – | 5 (Level 5: the growth inhibition rate is greater than 85%) | 5 (Level 5: the growth inhibition rate is greater than 85%) | – | 0 (Level 0: the growth inhibition rate is less than 5%)
10 | Nc1c(Cl)c(F)nc(OC(Cc2ccccc2)C(=O)OCc2ccccc2)c1Cl (stereo not drawn) [Compound 53] | 5 (Level 5: the growth inhibition rate is greater than 85%) | – | 5 (Level 5: the growth inhibition rate is greater than 85%) | 5 (Level 5: the growth inhibition rate is greater than 85%) | – | 0 (Level 0: the growth inhibition rate is less than 5%)
11 | Nc1c(Cl)c(F)nc(OC(C(=O)OCc2ccccc2)c2cccs2)c1Cl (stereo not drawn) [Compound 54] | 5 (Level 5: the growth inhibition rate is greater than 85%) | – | 5 (Level 5: the growth inhibition rate is greater than 85%) | 5 (Level 5: the growth inhibition rate is greater than 85%) | – | 0 (Level 0: the growth inhibition rate is less than 5%)
12 | CC(Oc1nc(F)c(Cl)c(N)c1Cl)C(=O)OCc1cc(C(F)(F)F)ccc1F (stereo not drawn) [Compound 82] | 5 (Level 5: the growth inhibition rate is greater than 85%) | 5 (Level 5: the growth inhibition rate is greater than 85%) | 5 (Level 5: the growth inhibition rate is greater than 85%) | 5 (Level 5: the growth inhibition rate is greater than 85%) | 5 (Level 5: the growth inhibition rate is greater than 85%) | 0 (Level 0: the growth inhibition rate is less than 5%)
13 | CC(Oc1nc(F)c(Cl)c(N)c1Cl)C(=O)OCc1c(F)ccc(F)c1F (stereo not drawn) [Compound 83] | 5 (Level 5: the growth inhibition rate is greater than 85%) | 5 (Level 5: the growth inhibition rate is greater than 85%) | 5 (Level 5: the growth inhibition rate is greater than 85%) | 5 (Level 5: the growth inhibition rate is greater than 85%) | 5 (Level 5: the growth inhibition rate is greater than 85%) | 0 (Level 0: the growth inhibition rate is less than 5%)
14 | CC(Oc1nc(F)c(Cl)c(NCc2ccco2)c1Cl)C(=O)OCc1ccccc1 (stereo not drawn) [Compound 193] | 5 (Level 5: the growth inhibition rate is greater than 85%) | 5 (Level 5: the growth inhibition rate is greater than 85%) | 5 (Level 5: the growth inhibition rate is greater than 85%) | 5 (Level 5: the growth inhibition rate is greater than 85%) | 5 (Level 5: the growth inhibition rate is greater than 85%) | 0 (Level 0: the growth inhibition rate is less than 5%)
15 | CC(Oc1nc(F)c(Cl)c(NCc2ccc(C(F)(F)F)o2)c1Cl)C(=O)SCc1ccccc1 (stereo not drawn) [Compound 239] | 5 (Level 5: the growth inhibition rate is greater than 85%) | 5 (Level 5: the growth inhibition rate is greater than 85%) | 5 (Level 5: the growth inhibition rate is greater than 85%) | 5 (Level 5: the growth inhibition rate is greater than 85%) | 5 (Level 5: the growth inhibition rate is greater than 85%) | –
